Where two headings read alike, the source gives them in different places.

Experiment in all cases: cells
Experiment [1] concerns HCT116. Details: species or system SW620, SW620 MTHFD2-/-, PA-TU-8988T; Resazurin cell viability dose-response in 384-well plates, fluorescence at 595 nm, logistic fit. Conditions: Homo sapiens, HCT-116, 96 h, Figure 1=Extended Data Fig. 2a; C=RPMI+GlutaMAX (10% FBS, 1% P/S); D=Vehicle; 96 h viability, no metabolite rescue (vehicle); read-out: EC50 compound.
The subject of experiment [2] is PA-TU-8988T. Details: species or system SW620, SW620 MTHFD2-/-, HCT116; Resazurin cell viability dose-response in 384-well plates, fluorescence at 595 nm, logistic fit. Conditions: Homo sapiens, PaTu 8988t, 96 h, Figure 1=Extended Data Fig. 3e; C=DMEM+GlutaMAX (5% dFBS, 1% P/S); D=Vehicle; 96 h viability, no metabolite rescue (vehicle); read-out: EC50 compound.
Experiment [3] concerns SW620 MTHFD2 -/-. Details: species or system HCT116, PA-TU-8988T; Resazurin cell viability dose-response in 384-well plates, fluorescence at 595 nm, logistic fit. Conditions: Homo sapiens, SW-620, 96 h, C=RPMI+GlutaMAX (5% dFBS, 1% P/S), D=Vehicle, 96 h viability, no metabolite rescue (vehicle), read-out: EC50 compound.
The test system of experiment [4] is SW620 MTHFD2-/-. Details: species or system HCT116, PA-TU-8988T; Resazurin cell viability dose-response in 384-well plates, fluorescence at 595 nm, logistic fit. The note with it: Homo sapiens, SW-620, 96 h, C=RPMI+GlutaMAX (5% dFBS, 1% P/S), D=Vehicle, 96 h viability, no metabolite rescue (vehicle), read-out: EC50 compound.
Experiment [5] deals with SW620 WT. Details: species or system SW620 MTHFD2-/-, HCT116, PA-TU-8988T; Resazurin cell viability dose-response in 384-well plates, fluorescence at 595 nm, logistic fit. The note with it: Homo sapiens, SW-620, 96 h, D=Vehicle, 96 h viability, no metabolite rescue (vehicle), read-out: EC50 compound.
Experiment [6] relates to SW620. Details: species or system SW620 MTHFD2-/-, HCT116, PA-TU-8988T; Resazurin cell viability dose-response in 384-well plates, fluorescence at 595 nm, logistic fit. Conditions: Homo sapiens, SW-620, 96 h, D=Vehicle, 96 h viability, no metabolite rescue (vehicle), read-out: EC50 compound.
The mark [7] stands for this setting: Figure 1=Extended Data Fig. 3b, C=RPMI+GlutaMAX (5% dFBS, 1% P/S).
[8] abbreviates: Figure 1=Extended Data Fig. 3c, C=RPMI+GlutaMAX (5% dFBS, 1% P/S).
Setting [9] is: C=RPMI+GlutaMAX (5% FBS, 1% P/S).
Where [10] appears, read: Figure 1=Extended Data Fig. 2b, C=RPMI+GlutaMAX (10% FBS, 1% P/S).
[11] abbreviates: Figure 1=Extended Data Fig. 2c, C=RPMI+GlutaMAX (10% FBS, 1% P/S).

For the molecule `Nc1nc(N)c(CC(=O)Nc2cnc(C(=O)N[C@@H](CCC(=O)O)C(=O)O)c(F)c2)c(=O)[nH]1` [TH9619], the EC50 in experiment [1] is 52.4 nM; in experiment [2], 22.2 nM; in experiment [3] (Figure 1=3l), 0.626 nM; in experiment [3] (Figure 1=Extended Data Fig. 3d) it was 1.71 nM; in experiment [4] (Figure 1=6c) it was 1.24 nM; in experiment [5] (Figure 1=6i, C=RPMI+GlutaMAX (5% dFBS, 1% P/S)), 1420 nM. Besides, the 50% effective concentration (EC50) was found to be 993 nM in experiment [5] (Figure 1=3h, C=RPMI+GlutaMAX (5% dFBS, 1% P/S)); 562 nM in experiment [5] (setting [7]); 694 nM in experiment [5] (setting [8]); 16.9 nM in experiment [5] (Figure 1=Extended Data Fig. 3f, C=RPMI+GlutaMAX (5% dFBS, 1% P/S, 10 uM Hypoxanthine)); 11.3 nM in experiment [6] (C=HPLM (5% dFBS, 1% P/S)); 24.9 nM in experiment [6] (setting [9]). Besides, the EC50 in experiment [6] (Figure 1=1b, C=RPMI+GlutaMAX (10% FBS, 1% P/S)) came to 20.6 nM; in experiment [6] (Figure 1=3a, C=RPMI+GlutaMAX (5% dFBS, 1% P/S)), 603 nM; in experiment [6] (setting [10]), 27.8 nM; in experiment [6] (setting [11]), 21.9 nM; in experiment [6] (Figure 1=Extended Data Fig. 5j, C=RPMI+GlutaMAX (5% dFBS, 1% P/S)), 258 nM; in experiment [6] (Figure 1=Extended Data Fig.5a, C=RPMI+GlutaMAX (5% dFBS, 1% P/S)), 572 nM. The half-maximal effective concentration (EC50) in experiment [6] (Figure 1=Extended Data Fig.5f, C=RPMI+GlutaMAX (5% dFBS, 1% P/S)) came out at 439 nM; in experiment [6] (Figure 1=Extended Data Fig.5h, C=RPMI+GlutaMAX (5% dFBS, 1% P/S)), 239 nM.

For `O=c1[nH]cc(F)c(=O)[nH]1` [5-FU], the EC50 was 2140 nM in experiment [1]; 5350 nM in experiment [6] (Figure 1=2f, C=RPMI+GlutaMAX (10% FBS, 1% P/S)); 5170 nM in experiment [6] (setting [10]); 4630 nM in experiment [6] (setting [11]).

For `CN(Cc1cnc2nc(N)nc(N)c2n1)c1ccc(C(=O)N[C@@H](CCC(=O)O)C(=O)O)cc1` [MTX], the EC50 is 9.48 nM in experiment [1]; 30.8 nM in experiment [2]; 1.07 nM in experiment [3] (Figure 1=3n); 5.09 nM in experiment [3] (Figure 1=Extended Data Fig. 3d); 1.21 nM in experiment [4] (Figure 1=6e); 6.36 nM in experiment [5] (Figure 1=3j, C=RPMI+GlutaMAX (5% dFBS, 1% P/S)). Moreover, the EC50 is 5.99 nM in experiment [5] (Figure 1=6k, C=RPMI+GlutaMAX (5% dFBS, 1% P/S)); 7.33 nM in experiment [5] (setting [7]); 6.52 nM in experiment [5] (setting [8]); 27 nM in experiment [6] (C=HPLM (5% dFBS, 1% P/S)); 12.3 nM in experiment [6] (setting [9]); 17 nM in experiment [6] (Figure 1=2e, C=RPMI+GlutaMAX (10% FBS, 1% P/S)). Also, the 50% effective concentration (EC50) in experiment [6] (Figure 1=3c, C=RPMI+GlutaMAX (5% dFBS, 1% P/S)) came out at 7.12 nM; in experiment [6] (setting [10]), 9.21 nM; in experiment [6] (setting [11]), 9.96 nM; in experiment [6] (Figure 1=Extended Data Fig.5c, C=RPMI+GlutaMAX (5% dFBS, 1% P/S)), 10.6 nM.

With `Cc1[nH]nc2c1C(c1cc(CO)cc(-c3ccccc3)c1)(C(C)C)C(C#N)=C(N)O2` (stereo not drawn) [SHIN1], the EC50 in experiment [4] (Figure 1=6g) was found to be 2.35 nM; in experiment [6] (Figure 1=1e, C=RPMI+GlutaMAX (10% FBS, 1% P/S)), 1600 nM.

With `Cc1c(N2CCN(C)[C@@H](C)C2)ccc2c3c(c(=O)oc12)CN(C(=O)c1ccc(NS(C)(=O)=O)c(OC(F)(F)F)c1)CC3` [DS18561882], the 50% effective concentration (EC50) in experiment [3] (Figure 1=3o) is 551 nM; in experiment [3] (Figure 1=Extended Data Fig. 3d), 57.4 nM; in experiment [4] (Figure 1=6f), 162 nM; in experiment [5] (Figure 1=3k, C=RPMI+GlutaMAX (5% dFBS, 1% P/S)), 954 nM; in experiment [5] (setting [7]), 772 nM; in experiment [6] (setting [9]), above 10000 nM. The EC50 is 491 nM in experiment [6] (Figure 1=1d, C=RPMI+GlutaMAX (10% FBS, 1% P/S)); 954 nM in experiment [6] (Figure 1=3d, C=RPMI+GlutaMAX (5% dFBS, 1% P/S)); 320 nM in experiment [6] (Figure 1=Extended Data Fig.5d, C=RPMI+GlutaMAX (5% dFBS, 1% P/S)).

Values taken from PMC10132981, “Formate overflow drives toxic folate trapping in MTHFD1 inhibited cancer cells” (Nature Metabolism, 2023).
